According to PubChem BioAssay AID330 (DTP/NCI, 2004):
Values joined by “and” are separate entries in the source; they are usually repeats but may differ in a detail not shown here. Equal entries are not always repeated. Inconclusive results and toxic doses are left out. The calls were made as follows: active = survival T/C of 150% or more; inactive = T/C below 125% in these data.

Tested on: P388 leukemia ip, CD2F1 mice, survival T/C
Assay: NCI In Vivo Anticancer Drug Screen. Data for tumor model P388 Leukemia (intraperitoneal) in CD2F1 (CDF1) mice
Conditions: endpoint: median survival time, higher = longer survival
Outline: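 Mice carrying the transplanted tumor received test compound or vehicle. Survival was recorded in each group, and the value is the treated-group measurement divided by that of the vehicle-treated control group.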

[1] = dose: 50.0 mg/kg/injection, schedule: Q01DX005 (ip), vehicle: saline with Tween-80
[2] = dose: 100.0 mg/kg/injection, schedule: Q01DX005 (ip), vehicle: saline with Tween-80
[3] = dose: 200.0 mg/kg/injection, schedule: Q01DX005 (ip), vehicle: saline with Tween-80
[4] = dose: 50.0 mg/kg/injection, schedule: Q01DX009 (ip), vehicle: Klucel (hydroxypropylcellulose) (HPC)
[5] = dose: 100.0 mg/kg/injection, schedule: Q01DX009 (ip), vehicle: Klucel (hydroxypropylcellulose) (HPC)
[6] = dose: 12.5 mg/kg/injection, schedule: Q01DX009 (ip), vehicle: saline with Tween-80
[7] = dose: 25.0 mg/kg/injection, schedule: Q01DX009 (ip), vehicle: saline with Tween-80
[8] = dose: 50.0 mg/kg/injection, schedule: Q01DX009 (ip), vehicle: saline with Tween-80
[9] = dose: 200.0 mg/kg/injection, schedule: Q01DX009 (ip), vehicle: saline with Tween-80
[10] = dose: 60.0 mg/kg/injection, schedule: Q01DX005 (ip), vehicle: saline with Tween-80
[11] = dose: 120.0 mg/kg/injection, schedule: Q01DX005 (ip), vehicle: saline with Tween-80
[12] = dose: 100.0 mg/kg/injection, schedule: Q04DX002 (ip), vehicle: Klucel (hydroxypropylcellulose) (HPC)
[13] = dose: 200.0 mg/kg/injection, schedule: Q04DX002 (ip), vehicle: Klucel (hydroxypropylcellulose) (HPC)
[14] = dose: 400.0 mg/kg/injection, schedule: Q04DX002 (ip), vehicle: Klucel (hydroxypropylcellulose) (HPC)

Measured: T/C

Cc1[nH]c(=O)[nH]c(=O)c1/C=C/C(=O)NC(CO)CSC(C)C (stereo not given)
inactive: dose: 50.0 mg/kg/injection, schedule: Q01DX009 (ip), vehicle: other 86 % of control | dose: 200.0 mg/kg/injection, schedule: Q01DX009 (ip), vehicle: other 90 % of control | dose: 400.0 mg/kg/injection, schedule: Q01DX009 (ip), vehicle: other 89 % of control

CC(=O)c1c(OCC(O)CN(CCO)CCO)ccc2c(C)cc(=O)oc12 (stereo not given)
inactive: [1] 107 % of control | [2] 104 % of control | [3] 108 % of control

Oc1ccc(Cl)cc1C1c2ccccc2Oc2ccccc21
inactive: [4] 115 % of control | [5] 108 % of control

O=C(NC1CC(c2ccccc2)(c2ccccc2)OC1=O)OCc1ccccc1 (stereo not given)
inactive: [6] 90 % of control | [7] 93 % of control | [8] 90 % of control and 93 % of control | [9] 93 % of control

CCN(CC)C/C(C)=C(/c1ccccc1)c1ccccc1S(N)(=O)=O
inactive: dose: 100.0 mg/kg/injection, schedule: Q01DX001 (ip), vehicle: Klucel (hydroxypropylcellulose) (HPC) 116 % of control | dose: 200.0 mg/kg/injection, schedule: Q01DX001 (ip), vehicle: Klucel (hydroxypropylcellulose) (HPC) 111 % of control

Cc1cc[c]([Sb]2([c]3ccc(C)cc3)([c]3ccc(C)cc3)[NH]c3cc(C(c4ccccc4)(c4ccccc4)c4ccccc4)cc(C(C)(C)C)c3[O]2)cc1
inactive: [8] 94 % of control | dose: 100.0 mg/kg/injection, schedule: Q01DX009 (ip), vehicle: saline with Tween-80 92 % of control | [9] 99 % of control

Cc1ccc(C(=O)/C([S-])=C(\Nc2cccc(Cl)c2)[n+]2ccccc2)cc1
inactive: dose: 50.0 mg/kg/injection, schedule: Q01DX005 (ip), vehicle: Klucel (hydroxypropylcellulose) (HPC) 100 % of control | dose: 100.0 mg/kg/injection, schedule: Q01DX005 (ip), vehicle: Klucel (hydroxypropylcellulose) (HPC) 98 % of control | dose: 200.0 mg/kg/injection, schedule: Q01DX005 (ip), vehicle: Klucel (hydroxypropylcellulose) (HPC) 93 % of control

C/C=C1/C[N+]2([O-])CC[C@@]34c5ccc(OC)cc5N(C)[C@H]3C2CC1C4C(=O)OC (stereo not given in full)
inactive: dose: 2.5 mg/kg/injection, schedule: Q01DX005 (ip), vehicle: Klucel + Tween-80 96 % of control | dose: 5.0 mg/kg/injection, schedule: Q01DX005 (ip), vehicle: Klucel + Tween-80 97 % of control | dose: 10.0 mg/kg/injection, schedule: Q01DX005 (ip), vehicle: Klucel + Tween-80 98 % of control | dose: 20.0 mg/kg/injection, schedule: Q01DX005 (ip), vehicle: Klucel + Tween-80 98 % of control

O=S(=O)(Nc1ccc(Br)c2ccccc12)c1ccccc1
inactive: dose: 18.75 mg/kg/injection, schedule: Q01DX001 (ip), vehicle: saline with Tween-80 95 % of control | dose: 37.5 mg/kg/injection, schedule: Q01DX001 (ip), vehicle: saline with Tween-80 95 % of control | dose: 75.0 mg/kg/injection, schedule: Q01DX001 (ip), vehicle: saline with Tween-80 95 % of control

O=C1CN(C(=O)Nc2ccccc2)c2ccccc2N1
inactive: [1] 92 % of control | [2] 93 % of control | [3] 90 % of control

CN(S(=O)(=O)CC(F)(F)F)S(=O)(=O)C(F)(F)F
inactive: dose: 1.56 mg/kg/injection, schedule: Q01DX009 (ip), vehicle: saline 120 % of control | dose: 2.05 mg/kg/injection, schedule: Q01DX009 (ip), vehicle: saline 93 % of control and 97 % of control | dose: 3.12 mg/kg/injection, schedule: Q01DX009 (ip), vehicle: saline 101 % of control and 102 % of control | dose: 4.68 mg/kg/injection, schedule: Q01DX009 (ip), vehicle: saline 102 % of control and 111 % of control | dose: 6.25 mg/kg/injection, schedule: Q01DX009 (ip), vehicle: saline 100 % of control

COC(=O)c1nnn(-c2ccc(C)c(C)c2)c1C(=O)c1ccccc1
inactive: [10] 99 % of control | [11] 109 % of control

CCCCCCCCCCCCOC(=O)c1ccc(O)cc1
inactive: [4] 98 % of control | [5] 94 % of control

Cc1ccc(S(=O)(=O)NC(=O)Nc2sc(=S)c3c(c2C#N)CCCC3)cc1
inactive: [1] 100 % of control | [2] 103 % of control

CC(=O)C/C(=N\NS(=O)(=O)c1cc(Cl)c(Cl)cc1Cl)c1ccc([N+](=O)[O-])cc1
inactive: dose: 100.0 mg/kg/injection, schedule: Q04DX003 (ip), vehicle: saline 99 % of control | dose: 200.0 mg/kg/injection, schedule: Q04DX003 (ip), vehicle: saline 100 % of control | dose: 400.0 mg/kg/injection, schedule: Q04DX003 (ip), vehicle: saline 97 % of control

CCn1c2ccccc2c2cc(NC(=O)NC(=O)c3ccccc3)ccc21
inactive: [1] 90 % of control | [2] 90 % of control | [3] 87 % of control

COC(=O)C1(CC(=O)c2ccc3ccccc3c2)NC(=S)NC(=O)C1C#N (stereo not given)
inactive: [10] 95 % of control | [11] 95 % of control | dose: 240.0 mg/kg/injection, schedule: Q01DX005 (ip), vehicle: saline with Tween-80 91 % of control

Clc1ccc(OCCC(Cn2ccnc2)c2ccc(Cl)cc2Cl)c(Cl)c1 (stereo not given)
inactive: [6] 113 % of control | [7] 112 % of control | [8] 101 % of control

CN1CCc2[nH]c3ccccc3c2C1
inactive: [12] 100 % of control | [13] 102 % of control

O=C(c1ccccc1)c1nonc1C(=O)c1ccccc1
inactive: dose: 100.0 mg/kg/injection, schedule: Q01DX001 (ip), vehicle: saline with Tween-80 95 % of control | dose: 200.0 mg/kg/injection, schedule: Q01DX001 (ip), vehicle: saline with Tween-80 104 % of control | dose: 400.0 mg/kg/injection, schedule: Q01DX001 (ip), vehicle: saline with Tween-80 95 % of control

OCCCCC/C=C/CCCCCCC1C=CCC1 (stereo not given)
inactive: dose: 100.0 mg/kg/injection, schedule: Q01DX001 (ip), vehicle: saline 99 % of control | dose: 200.0 mg/kg/injection, schedule: Q01DX001 (ip), vehicle: saline 99 % of control | dose: 400.0 mg/kg/injection, schedule: Q01DX001 (ip), vehicle: saline 99 % of control

CC(=O)Nc1ccc(S(=O)(=O)Oc2noc3ccc(Cl)cc23)cc1
inactive: [12] 98 % of control | [13] 98 % of control | [14] 93 % of control

S=P(N1CCCCCC1)(N1CC1)N1CC1
inactive: dose: 12.5 mg/kg/injection, schedule: Q04DX003 (ip), vehicle: saline with Tween-80 109 % of control | dose: 16.5 mg/kg/injection, schedule: Q01DX009 (ip), vehicle: saline 108 % of control | dose: 33.0 mg/kg/injection, schedule: Q04DX003 (ip), vehicle: saline sonified 109 % of control | dose: 50.0 mg/kg/injection, schedule: Q01DX009 (ip), vehicle: saline 95 % of control | dose: 50.0 mg/kg/injection, schedule: Q04DX003 (ip), vehicle: saline sonified 118 % of control
active: dose: 37.5 mg/kg/injection, schedule: Q01DX009 (ip), vehicle: saline 183 % of control | dose: 50.0 mg/kg/injection, schedule: Q04DX003 (ip), vehicle: saline with Tween-80 154 % of control

Cc1cc(N=[N+]=[N-])c2ccc(F)cc2n1
inactive: [10] 94 % of control | [11] 92 % of control

COc1ccccc1N1CCN(c2nc(NC(=O)c3ccccc3)nn2C)CC1
inactive: dose: 60.0 mg/kg/injection, schedule: Q01DX005 (ip), vehicle: Klucel (hydroxypropylcellulose) (HPC) 112 % of control | dose: 120.0 mg/kg/injection, schedule: Q01DX005 (ip), vehicle: Klucel (hydroxypropylcellulose) (HPC) 87 % of control

COc1ccc(NS(=O)(=O)c2ccc(NCc3c4ccccc4nc4ccccc34)cc2)nn1
inactive: dose: 12.5 mg/kg/injection, schedule: Q04DX002 (ip), vehicle: Klucel (hydroxypropylcellulose) (HPC) 96 % of control | dose: 25.0 mg/kg/injection, schedule: Q04DX002 (ip), vehicle: Klucel (hydroxypropylcellulose) (HPC) 99 % of control | dose: 50.0 mg/kg/injection, schedule: Q04DX002 (ip), vehicle: Klucel (hydroxypropylcellulose) (HPC) 89 % of control | [12] 87 % of control | [13] 91 % of control | [14] 93 % of control

Nc1cc2c(c[n+](CCCCCCC[n+]3cc4c5ccccc5c(N)cc4c4ccccc43)c3ccccc23)c2ccccc12
active: dose: 1.56 mg/kg/injection, schedule: Q04DX003 (ip), vehicle: other 150 % of control and 153 % of control | dose: 3.13 mg/kg/injection, schedule: Q04DX003 (ip), vehicle: other 155 % of control | dose: 6.25 mg/kg/injection, schedule: Q04DX003 (ip), vehicle: other 150 % of control and 173 % of control | dose: 12.5 mg/kg/injection, schedule: Q04DX003 (ip), vehicle: other 166 % of control and 180 % of control
